Assay results published in patent US20020061888A1, “Combination therapy for the prophylaxis and treatment of hyperlipidemic conditions and disorders” (priority 2000, published 2002).
Several values for one entry are separate records, joined by “and”; a condition that tells them apart may be missing. Equal values may be shown once. Marks after values point to notes of the source that are not given here.

Test system: Male beagle dogs
Assay: Serum total cholesterol in beagle dogs (serum lipid measurements)
Format: in vivo
Settings: for SERUM TOTAL CHOLESTEROL / TOTAL SERUM CHOLESTEROL: n = 6; for decrease in serum total cholesterol concentration: compared to vehicle
Method: Male beagle dogs (9-10 kg) obtained from Marshall farms were fed a normal chow diet once a day for a two hour interval and given water ad libitum. Prior to initiating treatment, the dogs were weighed and blood samples were drawn from the cephalic vein of each dog following an overnight fast to evaluate pretreatment serum total cholesterol levels at the start of the study. […] All doses were administered in gelatin capsules per os to each dog between 9:00-9:30 a.m. prior to feeding. All animals were fed between 9:30-10:00 a.m. and were allowed two hours to eat, at which time any remaining food was removed. […] Animals were dosed daily for three weeks and blood samples were taken at the end of each week after an overnight fast for comparison with pretreatment serum total cholesterol levels. Three consecutive 24 hour fecal samples were collected for each group during the last 72 hours of each week and used to measure the concentration of fecal biles acids excreted during that time period.
Blood was collected from the cephalic vein of each dog into serum separator tubes. The blood was centrifuged at 900×g for 20 minutes at room temperature and the serum decanted. All analyses were performed on a Cobas Mira Clinical Analyzer System (Roche Diagnostic Systems, Branchburg, N.J.) using Roche Diagnostic reagents for enzymatic determinations of serum cholesterol. Commercial calibrator and quality control materials were analyzed with each run to verify assay accuracy and precision. A two-tailed, paired Students t-test was used to determine the statistical significance of changes in serum total cholesterol in treated dogs compared to pretreatment values. A one-way analysis of variance (“ANOVA”) was used to compare each pair of treatment groups to determine the statistical significance of changes in serum total cholesterol.
Beagle dogs also were administered pravastatin to evaluate the monotherapeutic effect of pravastatin on serum total cholesterol.
Male beagle dogs (9-10 kg) obtained from Marshall farms were fed once a day for two hours and given water ad libitum. Prior to initiating treatment, blood samples were drawn from the cephalic vein of each dog to evaluate pretreatment total serum cholesterol levels at the start of the study.
For the dose ranging study, the dogs were assigned to one of five groups based on mean body weights and serum total cholesterol levels. Each group received one of the following dosages: (1) vehicle (empty capsule, afternoon dosing), (2) 3.0 mg/kg/day pravastatin (afternoon dosing), (3) 10 mg/kg/day pravastatin (afternoon dosing), (4) 30 mg/kg/day pravastatin (afternoon dosing), and (5) 10 mg/kg/day pravastatin (morning dosing). One capsule containing pravastatin was administered per os to each dog between 9:00-9:30 a.m. prior to feeding for the 10 mg/kg/day morning dosing group and between 2:30-3:00 p.m. for the afternoon dosing groups. All animals were fed between 9:30-10:00 a.m. and were allowed two hours to eat, at which time any remaining food was removed. […] Animals were dosed daily for four weeks and blood samples were taken at the end of each week after an overnight fast for comparison with pretreatment serum total cholesterol levels.
Following this initial four week dose-ranging study, dogs from the two groups receiving 10 mg/kg/day pravastatin (a.m. and p.m. dosing groups) were randomized into two new treatment groups based on serum total cholesterol levels to initiate the combination treatment study. […] Dosing continued in this manner for an additional four weeks (Weeks 5-8) with blood and 48-hour fecal samples collected at the end of each week for serum lipid measurements and fecal bile acid determinations, respectively.

For `CCCCC1(CC)CS(=O)(=O)c2ccc(N(C)C)cc2[C@@H](c2cccc(OCc3ccc(C[N+]45CCN(CC4)CC5)cc3)c2)[C@H]1O.[Cl-]` (stereo partly drawn) [Compound A-5], the “% change in serum total cholesterol compared to the pretreatment value of each group” value (“% change in serum total cholesterol” for short) (compound A-5 0.22 mg/kg/day per os, Week 1) was “(−9) %”, the “SERUM TOTAL CHOLESTEROL” value (compound A-5 0.22 mg/kg/day per os, Week 1, mean ± SEM) was 140 ± 10^3 mg/dL and the “% change in serum total cholesterol” value (compound A-5 0.22 mg/kg/day per os, Week 2) was “(−7) %”. The “SERUM TOTAL CHOLESTEROL” value (compound A-5 0.22 mg/kg/day per os, Week 2, mean ± SEM) was 143 ± 11 mg/dL, the “% change in serum total cholesterol” value (compound A-5 0.22 mg/kg/day per os, Week 3) was “(−10) %” and the “SERUM TOTAL CHOLESTEROL” value (compound A-5 0.22 mg/kg/day per os, Week 3, mean ± SEM) was 138 ± 11^3 mg/dL. For the same compound, the “decrease in serum total cholesterol concentration” value (compound A-5 0.22 mg/kg/day, one week of treatment) was 9%, the “decrease in serum total cholesterol concentration” value (compound A-5 0.22 mg/kg/day, three weeks of treatment) was 10% and the “% change in serum total cholesterol” value (compound A-5 0.66 mg/kg/day per os, Week 1) was “(−7) %”. The “SERUM TOTAL CHOLESTEROL” value (compound A-5 0.66 mg/kg/day per os, Week 1, mean ± SEM) was 145 ± 9 mg/dL, the “% change in serum total cholesterol” value (compound A-5 0.66 mg/kg/day per os, Week 2) was “(−4) %” and the “SERUM TOTAL CHOLESTEROL” value (compound A-5 0.66 mg/kg/day per os, Week 2, mean ± SEM) was 149 ± 8 mg/dL. For the same compound, the “% change in serum total cholesterol” value (compound A-5 0.66 mg/kg/day per os, Week 3) was “(−6) %”, the “SERUM TOTAL CHOLESTEROL” value (compound A-5 0.66 mg/kg/day per os, Week 3, mean ± SEM) was 146 ± 8 mg/dL and the “decrease in serum total cholesterol concentration” value (compound A-5 0.66 mg/kg/day, one week of treatment) was 7%. The “decrease in serum total cholesterol concentration” value (compound A-5 0.66 mg/kg/day, three weeks of treatment) was 6%, the “% change in serum total cholesterol” value (compound A-5 2.0 mg/kg/day per os, Week 1) was “(−12) %” and the “SERUM TOTAL CHOLESTEROL” value (compound A-5 2.0 mg/kg/day per os, Week 1, mean ± SEM) was 137 ± 10^3 mg/dL. The “% change in serum total cholesterol” value (compound A-5 2.0 mg/kg/day per os, Week 2) was “(−15) %”, the “SERUM TOTAL CHOLESTEROL” value (compound A-5 2.0 mg/kg/day per os, Week 2, mean ± SEM) was 133 ± 11^3 mg/dL and the “% change in serum total cholesterol” value (compound A-5 2.0 mg/kg/day per os, Week 3) was “(−13) %”. For the same compound, the “SERUM TOTAL CHOLESTEROL” value (compound A-5 2.0 mg/kg/day per os, Week 3, mean ± SEM) was 136 ± 10^3 mg/dL, the “decrease in serum total cholesterol concentration” value (compound A-5 2.0 mg/kg/day, one week of treatment) was 12% and the “decrease in serum total cholesterol concentration” value (compound A-5 2.0 mg/kg/day, three weeks of treatment) was 13%. For the same compound, the “decrease in serum total cholesterol compared to the initial value at Week 0” value (compound A-5 4 mg/kg/day for four weeks (beginning after Week 4), Week 8) was 23%, the “% change in serum total cholesterol” value (compound A-5 6.0 mg/kg/day per os, Week 1) was “(−19) %” and the “SERUM TOTAL CHOLESTEROL” value (compound A-5 6.0 mg/kg/day per os, Week 1, mean ± SEM) was 128 ± 11^3 mg/dL. For the same compound, the “% change in serum total cholesterol” value (compound A-5 6.0 mg/kg/day per os, Week 2) was “(−22) %”, the “SERUM TOTAL CHOLESTEROL” value (compound A-5 6.0 mg/kg/day per os, Week 2, mean ± SEM) was 124 ± 11^3 mg/dL and the “% change in serum total cholesterol” value (compound A-5 6.0 mg/kg/day per os, Week 3) was “(−24) %”. The “SERUM TOTAL CHOLESTEROL” value (compound A-5 6.0 mg/kg/day per os, Week 3, mean ± SEM) was 120 ± 11^3 mg/dL, the “decrease in serum total cholesterol concentration” value (compound A-5 6.0 mg/kg/day, one week of treatment) was 19% and the “decrease in serum total cholesterol concentration” value (compound A-5 6.0 mg/kg/day, three weeks of treatment) was 24%. The “% change from Week 0 in total serum cholesterol” value (compound A-5 monotherapy 4.0 mg/kg/day, dosed Weeks 5-8, Week 5) was “(−12) %”, the “TOTAL SERUM CHOLESTEROL” value (compound A-5 monotherapy 4.0 mg/kg/day, dosed Weeks 5-8, Week 5, mean ± SEM) was 123 ± 9 mg/dL and the “% change from Week 0 in total serum cholesterol” value (compound A-5 monotherapy 4.0 mg/kg/day, dosed Weeks 5-8, Week 6) was “(−18) %”. The “TOTAL SERUM CHOLESTEROL” value (compound A-5 monotherapy 4.0 mg/kg/day, dosed Weeks 5-8, Week 6, mean ± SEM) was 115 ± 8 [a] mg/dL, the “% change from Week 0 in total serum cholesterol” value (compound A-5 monotherapy 4.0 mg/kg/day, dosed Weeks 5-8, Week 7) was “(−18) %” and the “TOTAL SERUM CHOLESTEROL” value (compound A-5 monotherapy 4.0 mg/kg/day, dosed Weeks 5-8, Week 7, mean ± SEM) was 114 ± 6 [a] mg/dL. For the same compound, the “% change from Week 0 in total serum cholesterol” value (compound A-5 monotherapy 4.0 mg/kg/day, dosed Weeks 5-8, Week 8) was “(−23) %”, the “TOTAL SERUM CHOLESTEROL” value (compound A-5 monotherapy 4.0 mg/kg/day, dosed Weeks 5-8, Week 8, mean ± SEM) was 107 ±7 mg/dL and 107 ± 7 [a] mg/dL and the “% change from Week 0 in total serum cholesterol” value (compound A-5 monotherapy group, dosing terminated after Week 8, Week 9) was “(−5) %”. The “TOTAL SERUM CHOLESTEROL” value (compound A-5 monotherapy group, dosing terminated after Week 8, Week 9, mean ± SEM) was 132 ± 7 mg/dL, the “% change from Week 0 in total serum cholesterol” value (compound A-5 monotherapy group, dosing terminated after Week 8, Week 10) was “(−4) %” and the “TOTAL SERUM CHOLESTEROL” value (compound A-5 monotherapy group, dosing terminated after Week 8, Week 10, mean ± SEM) was 133 ± 10 mg/dL. For the same compound, the “% change from Week 0 in total serum cholesterol” value (compound A-5 monotherapy group, dosing terminated after Week 8, Week 11) was “(−5) %”, the “TOTAL SERUM CHOLESTEROL” value (compound A-5 monotherapy group, dosing terminated after Week 8, Week 11, mean ± SEM) was 132 ± 9 mg/dL and the “% change from Week 0 in total serum cholesterol” value (compound A-5 monotherapy group, dosing terminated after Week 8, Week 12) was “(−2) %”. The “TOTAL SERUM CHOLESTEROL” value (compound A-5 monotherapy group, dosing terminated after Week 8, Week 12, mean ± SEM) was 136 ± 9 mg/dL, the “% change from Week 0 in total serum cholesterol” value (compound A-5 monotherapy group, dosing terminated after Week 8, Week 13) was “(−14) %” and the “TOTAL SERUM CHOLESTEROL” value (compound A-5 monotherapy group, dosing terminated after Week 8, Week 13, mean ± SEM) was 137 ± 9 mg/dL.
